Test in all cases: growth of human tumour cells (NCI), 48 h
In test [1] the test system is A549 NSCLC.
Test [2] concerns BT-549 breast.
The test system of test [3] is HOP-92 NSCLC.
Test [4] deals with M14 melanoma.
Test [5] relates to MCF7 breast.
Test [6] has as its system NCI-H226 lung.
Test [7] concerns NCI/ADR-RES ovarian.
For test [8], the system named is SK-MEL-5 melanoma.
The subject of test [9] is TK-10 renal.
The test system of test [10] is SNB-19 CNS.

From PubChem BioAssay (NCI) come the findings set out here.

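Cultured in 96-well plates, cells were exposed to test compound for 48 hours across five concentrations. GI50 = concentration required for 50% inhibition of growth. TGI: total growth inhibition.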

On to `CO/N=C1\CC(NC(=O)CNC(=O)OC(C)(C)C)c2ccsc21` (configuration not stated), for which the TGI in test [1], in [2], in test [3], in [4], in [5] and in test [6] was above 100 µM in each case. Moreover, the TGI in [7], in test [8] and in [9] was above 100 µM in each case.
As for `Cc1ccc2c(=O)cc(-c3ccc(Cl)s3)[nH]c2n1`, the TGI in [1] is above 29.3 µM; in test [3] it was above 100 µM; in test [4], above 100 µM; in test [5], above 100 µM; in test [6], 7.79 µM; in test [7], above 100 µM. Also, the TGI in test [8] was 17.7 µM; in test [10], above 100 µM; in test [9], above 100 µM.
Regarding `C=C[C@@H](C)[C@H](NS(=O)(=O)c1ccc(C)cc1)C(=O)OCC`, the TGI was above 100 µM in test [1]; above 100 µM in [2]; above 100 µM in test [4]; 70.6 µM in test [5]; above 100 µM in test [6]; above 100 µM in test [7]. Besides, the TGI in [10] and in test [9] was above 100 µM throughout.
For `COC(OC)[C@@H]1OC[C@H](n2cnc3c(N)ncnc32)[C@H]1O`, the TGI in [1], in test [2], in test [3], in test [4], in test [6] and in test [7] was above 100 µM throughout. In addition, the TGI in test [8], in [10] and in test [9] was above 100 µM throughout.
For `COC(=O)C1CCC(=S)N1C(=O)c1ccccc1` (configuration not stated), the TGI in [1], in [2], in test [3], in [4], in test [5] and in [7] was above 100 µM each time. The TGI in test [8], in test [10] and in test [9] was above 100 µM in each case.
On to `O=S(=O)(c1ccc(NC2=NC(c3ccc(O)cc3)(c3ccccc3O)c3ccccc32)cc1)c1ccc(NC2=NC(c3ccc(O)cc3)(c3ccccc3O)c3ccccc32)cc1` (configuration not stated), for which the TGI was above 100 µM in [1]; above 70.6 µM in test [3]; above 29.2 µM in test [4]; above 100 µM in test [5]; 19.2 µM in [6]; above 100 µM in [7]. In addition, the TGI in test [8], in [10] and in test [9] was above 100 µM each time.
Take `CCCCC(=O)c1c(O)nc2sccn2c1=O`: the TGI in [1], in test [4], in [5], in [6], in test [7] and in test [8] was above 10 µM throughout. Further, the TGI in test [10] and in [9] was above 10 µM throughout.
In the case of `COc1c(O)c(C=O)c2c(O)c(-c3c(C)cc4c(C(C)C)c(OC)c(O)c(C=O)c4c3O)c(C)cc2c1C(C)C`, the TGI in [1] was 11.6 µM; in [3] it was 8.31 µM; in test [4], 22.2 µM; in [6], 9.69 µM; in test [8], 22.7 µM; in test [10] it was 16.5 µM. The TGI in [9] was 19.3 µM.
In the case of `CC(=O)OCC1OC(SC2=N/C(=C\c3ccc(Br)s3)C(=O)N2CN2CCOCC2)C(OC(C)=O)C(OC(C)=O)C1OC(C)=O` (configuration not stated), the TGI in [2] was found to be 38.8 µM; in [5], 33.8 µM; in test [6], 32.5 µM; in [7], 44 µM; in [8], 33.5 µM; in test [10], 46.7 µM. Moreover, the TGI in test [9] turned out to be 34.8 µM.
In the case of `C=C/C(C)=C\CC1[C@](C)(O)CC[C@H]2C(C)(C)C(=O)CC[C@]12C` (some centres not stated), the TGI in test [1], in test [3], in test [4], in test [5], in test [6] and in test [7] was above 100 µM in each case. Moreover, the TGI in test [8], in test [10] and in test [9] was above 100 µM throughout.
Take `Nc1ccc(S(=O)(=O)c2ccc(NCN3C(=O)NC(=O)C(=O)C3=O)cc2)cc1`: the TGI in test [1], in test [2], in test [3], in test [4], in test [6] and in test [7] was above 100 µM each time. The TGI in test [8], in test [10] and in [9] was above 100 µM in each case.
For `C[n+]1cccc2c(=O)c3ccccc3oc21`, the TGI in test [1], in test [3], in test [4], in test [5], in test [6] and in test [7] was above 100 µM each time. Besides, the TGI in test [8], in test [10] and in [9] was above 100 µM throughout.
On to `O=[N+]([O-])c1ccc2sc(C=Nc3cnccn3)cc2c1`, for which the TGI in test [1], in [2], in test [3], in test [4], in [5] and in test [7] was above 100 µM each time. In addition, the TGI in test [8], in [10] and in [9] was above 100 µM each time.
Take `CCNCCCn1c2c(c3ccc(Cl)cc3c1=O)C(=O)c1cc(OC)cnc1-2`: the GI50 in test [1] is 0.459 µM; in test [2], 0.813 µM; in [3], 3.01 µM; in [4] it was 0.518 µM; in test [6] it was 1.4 µM; in test [7] it was 0.282 µM. Also, the GI50 in test [8] was 0.813 µM; in test [10], 0.585 µM. For the same compound, the TGI in test [1] was determined as 2.31 µM; in test [2] it was 20.3 µM; in test [3], 27.2 µM; in [4] it was 2.06 µM; in test [6], 5.04 µM; in test [7] it was 2.53 µM. In addition, the TGI in test [8] is 2.49 µM; in test [10], 2.66 µM.
